In US20250144125A1 (priority 2021, published 2025):
Where two headings read alike, the source gives them in different places.

Key:
in vitro [1] = settings: African green monkey, Tacaribe virus CC50 Vero
[2] = test system: measles virus (CC strain); experiment: microbe, parasite or virus in culture; format: cell-based
in vitro [3] = settings: dog, CC50 MDCK
in vitro [4] = settings: human
MDCK cells = settings: dog
[5] = test system: dengue virus 2 (New Guinea C strain); experiment: microbe, parasite or virus in culture; format: cell-based
[6] = test system: tacaribe virus (TRVL11573 strain); experiment: microbe, parasite or virus in culture; format: cell-based; settings: read-out: Tacaribe virus EC50 TRVL 11573 strain
Vero cells = settings: African green monkey
[7] = Cytotoxicity in the human norovirus replicon assay (HG23 cells); settings: human, HG23 Nov replicon cells
[8] = test system: influenza A (H1N1) virus (California/07/2009 strain); experiment: microbe, parasite or virus in culture; format: cell-based; settings: for EC50: read-out: EC50 California/07/2009 strain
[9] = test system: yellow fever virus (YFV 17D strain); experiment: microbe, parasite or virus in culture; format: cell-based
in vitro [10] = settings: African green monkey
[11] = test system: human norovirus genogroup I NoV (Norwalk virus replicon) in HG23 cells; experiment: Human norovirus antiviral assay, qRT PCR in HG23 NoV replicon cells; format: cell-based; settings: for EC50: Norwalk virus
[12] = test system: enterovirus-71 (Tainan/4643/98 strain); experiment: organism not typed; format: cell-based
[13] = test system: chikungunya virus (S27 strain); experiment: microbe, parasite or virus in culture; format: cell-based
MERS-CoV (EMC strain) = experiment: microbe, parasite or virus in culture; format: cell-based
[14] = test system: enterovirus-71 (Tainan/4643/98 strain); experiment: Secondary assay (virus yield reduction / neutral red CPE) against enterovirus-71 in Vero 76 cells; format: cell-based; settings: for EC50: Vero 76, Neutral Red (Cytopathic effect/Toxicity); for EC90: Vero 76, Visual (Virus yield reduction)
[15] = read-out: Yellow fever virus CC50 Huh7, Neutral Red, YFV screen
[16] = read-out: Yellow fever virus CC50 Huh7, Visual, YFV screen
[17] = Measles morbillivirus, Vero 76, read-out: Measles EC50 CC strain
[18] = read-out: Measles EC50 CC strain
[19] = Dengue virus, Huh-7, read-out: EC50 dengue virus 2
[20] = Mammarenavirus tacaribeense, Vero
[21] = read-out: MERS-CoV CC50 Vero 76, Neutral Red, MERS-CoV screen
[22] = Yellow fever virus, Huh-7, read-out: Yellow fever virus EC50 YFV 17D strain
[23] = read-out: Yellow fever virus EC50 YFV 17D strain
[24] = HG23 Nov replicon cells, qRT PCR intracellular RNA, read-out: EC50 human norovirus
[25] = Vero 76, read-out: EC50 enterovirus-71
[26] = Chikungunya virus, Vero 76, read-out: EC50 chikungunya virus
[27] = Middle East respiratory syndrome-related coronavirus, Vero 76, read-out: MERS-CoV EC50 EMC strain
[28] = read-out: MERS-CoV EC50 EMC strain
[29] = read-out: EC50 chikungunya virus

SMILES: CC#Cc1ncnc2c1ccn2[C@@H]1O[C@H](CO)[C@@H](O)[C@H]1O [3.1d, 6-(Prop-1-yn-1-yl)-9-β-D-ribofuranosyl-7-deazapurine]
- CC50 (in vitro [1]): 5.2 µM
- CC50 (Huh7 cells; human): 3.7 µM
- CC50 (Huh7 cells; [15]): 1.8 µM
- CC50 (Huh7 cells; [16]): 12 µM
- EC50 [2, 17]: > 3.6 µM
- EC50 [2, 18]: > 3.4 µM
- CC50 (in vitro [3]): 6.1 µM
- CC50 (in vitro [4]; CC50): 3.6 µM
- CC50 (MDCK cells): 4.9 µM
- EC50 [5, 19]: 0.32 µM
- EC50 ([5]; read-out: EC50 dengue virus 2): 0.37 µM
- EC50 [6, 20]: 3.2 µM
- EC50 [6]: 2.2 µM
- CC50 (Vero 76 cells; African green monkey): 3.4 µM
- CC50 (Vero 76 cells; [21]): 3.3 µM
- CC50 (Vero cells): 4.2 µM
- CC50 at 3 days [7]: 17.4 µM
- EC50 ([8]; Influenza A virus, H1N1, MDCK): 3.2 µM
- EC50 [8]: 2.9 µM
- EC50 [9, 22]: 2.9 µM
- EC50 [9, 23]: > 1.8 µM
- CC50 (in vitro [10]; MERS-CoV CC50 Vero 76): 3.2 µM
- CC50 (in vitro [10]; Measles CC50 Vero 76): 3.6 µM
- activity against human norovirus in words [11]: low nanomolar activity and high selectivity
- EC50 [11, 24]: 0.006 µM

SMILES: OC[C@H]1O[C@@H](n2ccc3c(C4CC4)ncnc32)[C@H](O)[C@@H]1O [3.1a, 6-Cyclopropyl-9-β-D-ribofuranosyl-7-deazapurine, reference compound]
- CC50 (in vitro [1]): 100 µM
- CC50 (Huh7 cells; [15]): > 100 µM
- EC50 [12, 25]: > 100 µM
- EC50 [2, 17]: 63 µM
- EC50 [2, 18]: 56 µM
- CC50 (in vitro [3]): > 100 µM
- activity against chikungunya virus in words [13]: inactive
- EC50 [13, 26]: > 100 µM
- CC50 (in vitro [4]; CC50): > 100 µM
- CC50 (in vitro [4]; Yellow fever virus CC50 Huh7): 100 µM
- EC50 [5, 19]: 32 µM
- EC50 ([5]; read-out: EC50 dengue virus 2): 45 µM
- EC50 [6, 20]: 100 µM
- EC50 [6]: > 100 µM
- CC50 (Vero 76 cells; African green monkey): > 100 µM
- CC50 (Vero 76 cells; [21]): > 100 µM
- CC50 (Vero cells): > 100 µM
- CC50 at 3 days [7]: > 100 µM
- EC50 (MERS-CoV (EMC strain); [27]): > 100 µM
- activity against influenza A (H1N1) in words [8]: not active
- EC50 ([8]; Influenza A virus, H1N1, MDCK): > 100 µM
- EC50 [9, 22]: > 100 µM
- CC50 (in vitro [10]; MERS-CoV CC50 Vero 76): > 100 µM
- CC50 (in vitro [10]; Measles CC50 Vero 76): 100 µM
- EC50 [11, 24]: 2.52 µM

SMILES: CC(C)C#Cc1ncnc2c1ccn2[C@@H]1O[C@H](CO)[C@@H](O)[C@H]1O [3.1e, 6-(3-Methylbut-1-yn-1-yl)-9-β-D-ribofuranosyl-7-deazapurine]
- CC50 (in vitro [1]): 10 µM
- CC50 (Huh7 cells; human): 21 µM
- EC50 [12, 25]: 4.2 µM
- EC50 ([12]; read-out: EC50 enterovirus-71): 4.3 µM
- EC50 [2, 17]: 3.2 µM
- EC50 [2, 18]: 2.4 µM
- EC50 [13, 26]: > 100 µM
- CC50 (in vitro [4]; CC50): 24 µM
- CC50 (in vitro [4]; Yellow fever virus CC50 Huh7): 28 µM
- EC50 [5, 19]: 3.2 µM
- EC50 ([5]; read-out: EC50 dengue virus 2): 1.8 µM
- EC50 [6, 20]: 1.3 µM
- EC50 [6]: 1 µM
- CC50 (Vero 76 cells; [21]): > 100 µM
- CC50 (Vero cells): 7.3 µM
- CC50 at 3 days [7]: 39.5 µM
- EC50 [14]: 4 µM
- EC90 [14]: 4.6 µM
- EC50 (MERS-CoV (EMC strain); [27]): 11 µM
- EC50 (MERS-CoV (EMC strain); [28]): 14 µM
- EC50 ([8]; Influenza A virus, H1N1, MDCK): 3.2 µM
- EC50 [8]: 3 µM
- EC50 [9, 22]: 9.2 µM
- CC50 (in vitro [10]; MERS-CoV CC50 Vero 76): > 100 µM
- CC50 (in vitro [10]; Measles CC50 Vero 76): 34 µM
- EC50 [11, 24]: 0.396 µM

SMILES: OC[C@H]1O[C@@H](n2ccc3c(C#Cc4ccc(F)cc4)ncnc32)[C@H](O)[C@@H]1O [3.1h, 6-((4-Fluorophenyl)ethynyl)-9-β-D-ribofuranosyl-7-deazapurine]
- CC50 (in vitro [1]): 24 µM
- CC50 (Huh7 cells; [15]): 30 µM
- EC50 [12, 25]: > 39 µM
- EC50 ([12]; read-out: EC50 enterovirus-71): > 46 µM
- EC50 [2, 17]: 6.2 µM
- EC50 [2, 18]: 7.1 µM
- EC50 [13, 26]: > 36 µM
- EC50 [13, 29]: 32 µM
- CC50 (in vitro [4]; Yellow fever virus CC50 Huh7): 32 µM
- EC50 [5, 19]: > 32 µM
- EC50 ([5]; read-out: EC50 dengue virus 2): > 29 µM
- EC50 [6, 20]: 24 µM
- EC50 [6]: > 23 µM
- CC50 (Vero 76 cells; [21]): 29 µM
- CC50 (Vero cells): 23 µM
- CC50 at 3 days [7]: 38.5 µM
- EC50 (MERS-CoV (EMC strain); [27]): > 32 µM
- EC50 (MERS-CoV (EMC strain); [28]): > 29 µM
- EC50 [9, 22]: 2.2 µM
- EC50 [9, 23]: 2.3 µM
- CC50 (in vitro [10]; CC50): 36 µM
- CC50 (in vitro [10]; MERS-CoV CC50 Vero 76): 32 µM
- CC50 (in vitro [10]; Measles CC50 Vero 76): 28 µM
- activity against human norovirus in words [11]: low nanomolar activity and high selectivity
- EC50 [11, 24]: < 0.001 µM

SMILES: CCOC(=O)c1ccc(OCCC2CCN(c3ccc(C)nn3)CC2)cc1 [Pirodavir, pirodavir, reference compound]
- EC50 [12, 25]: 0.4 µM
- EC50 ([12]; read-out: EC50 enterovirus-71): 0.27 µM
- EC50 [14]: 0.35 µM
- EC90 [14]: 0.46 µM
- CC50 (in vitro [10]; CC50): > 27 µM

SMILES: C=C(OCC)c1ncnc2c1ccn2[C@@H]1O[C@H](CO)[C@@H](O)[C@H]1O [3.1b, 6-(1-Ethoxyvinyl)-9-β-D-ribofuranosyl-7-deazapurine]
- CC50 (in vitro [1]): 100 µM
- CC50 (Huh7 cells; human): 8.6 µM
- CC50 (Huh7 cells; [15]): 22 µM
- EC50 [12, 25]: > 84 µM
- EC50 ([12]; read-out: EC50 enterovirus-71): 90 µM
- EC50 [2, 17]: > 100 µM
- EC50 [2, 18]: 64 µM
- CC50 (in vitro [4]; CC50): 8.5 µM
- CC50 (in vitro [4]; Yellow fever virus CC50 Huh7): 28 µM
- EC50 [6, 20]: 44 µM
- EC50 [6]: 39 µM
- CC50 (Vero 76 cells; African green monkey): 100 µM
- CC50 (Vero 76 cells; [21]): 86 µM
- CC50 (Vero cells): 99 µM
- CC50 at 3 days [7]: 60.5 µM
- activity against MERS-CoV in words (MERS-CoV (EMC strain)): moderately active with low selectivity index
- EC50 [9, 22]: > 28 µM
- EC50 [9, 23]: > 22 µM
- CC50 (in vitro [10]; MERS-CoV CC50 Vero 76): 52 µM
- CC50 (in vitro [10]; Measles CC50 Vero 76): > 100 µM
- EC50 ([11]; HG23, read-out: EC50 human norovirus): 0.007 µM

SMILES: OC[C@H]1O[C@@H](n2ccc3c(C#Cc4ccc(Cl)cc4)ncnc32)[C@H](O)[C@@H]1O [3.1j, 6-((4-Chlorophenyl)ethynyl)-9-β-D-ribofuranosyl-7-deazapurine]
- CC50 (in vitro [1]): 8.6 µM
- CC50 (Huh7 cells; human): 13 µM
- CC50 (Huh7 cells; [15]): 5 µM
- CC50 (Huh7 cells; [16]): 28 µM
- EC50 [12, 25]: > 32 µM
- EC50 ([12]; read-out: EC50 enterovirus-71): > 31 µM
- EC50 [2, 17]: 3.2 µM
- EC50 [2, 18]: 3.3 µM
- CC50 (in vitro [3]): 2.4 µM
- EC50 [13, 26]: > 32 µM
- EC50 [13, 29]: > 23 µM
- CC50 (in vitro [4]; CC50): 12 µM
- CC50 (MDCK cells): 3.2 µM
- EC50 [5, 19]: 1.1 µM
- EC50 ([5]; read-out: EC50 dengue virus 2): 1 µM
- EC50 [6, 20]: > 8.6 µM
- EC50 [6]: > 6.5 µM
- CC50 (Vero cells): 6.5 µM
- CC50 at 3 days [7]: 38.6 µM
- EC50 (MERS-CoV (EMC strain); [27]): > 32 µM
- EC50 ([8]; Influenza A virus, H1N1, MDCK): > 2.4 µM
- EC50 [8]: > 3.2 µM
- EC50 [9, 22]: 1.2 µM
- EC50 [9, 23]: 0.8 µM
- CC50 (in vitro [10]; MERS-CoV CC50 Vero 76): 32 µM
- CC50 (in vitro [10]; Measles CC50 Vero 76): 12 µM
- EC50 [11, 24]: 0.022 µM
